Results reported in patent US10500222B2, “Compositions and methods relating to treatment of infection” (Wayne State University, priority 2015, dated 2019).
Entries after “also recorded” stand apart in the source; their conditions may differ.

Tests used:
Format in all cases: in vivo, C57BL/6 (B6) mice
[1] = system: mRNA levels in P. aeruginosa KEI 1025 infected cornea; experiment: Real time RT-PCR of cornea, KEI 1025 infection
Procedure: (§1) The left eyes of B6 mice (n=5/group/time) were injected with 5 μl of 2 μg/μl glycyrrhizin (GLY) (Sigma-Aldrich, St. Louis, Mo.) or PBS (control) subconjunctivally, one day before infection. Similar treatment was done using carbenoxolone (CBX) (Sigma-Aldrich, St. Louis, Mo.). All mice were injected intraperitoneally (IP) at 1 and 3 days p.i. with 100 μl of GLY (2 μg/μl) or CBX (1 μg/μl). PBS served as control for all these experiments. In a separate similar experiment mice were treated one day before infection with GLY subconjunctivally and injected intraperitoneally (i.p.) with GLY plus recombinant (r) HMGB1 (1 μg/100 μl) or GLY plus PBS. IP injections were similarly given at 1 and 3 days p.i. In an additional experiment, KEI 1025 infected B6 mice were treated with 5 μl of 2 μg/μl GLY subconjunctivally at 6 hours p.i. and injected intraperitoneally at 1 and 3 days p.i. with 100 μl of GLY (2 μg/μl).
(§2) KEI 1025 or ATCC strain 19660 infected GLY or PBS treated mice were sacrificed at 5 days p.i. and the normal, contralateral (uninfected) and infected cornea was harvested. For each cornea, total RNA was isolated (RNA STAT-60™; Tel-Test, Friendswood, Tex.) according to the manufacturer's instructions. Upon spectrophotometric quantification at 260 nm, 1 μg of each RNA sample was reverse transcribed using Moloney-murine leukemia virus (M-MLV) reverse transcriptase (Invitrogen, Carlsbad, Calif.) to produce a cDNA template for the PCR reaction. cDNA products were diluted 1:25 with diethylpyrocarbonate (DEPC)-treated water. A 2 μl aliquot of diluted cDNA was used for the real-time RT-PCR reaction with Real-Time SYBR® Green/Fluorescein PCR Master Mix (Bio-Rad) and primer concentrations of 10 μM (total 10 μl reaction volume). After a pre-programmed hot start cycle (3 min at 95° C.), the parameters used for PCR amplification were: 15 sec at 95° C. and 60 sec at 60° C. with the cycles repeated 45 times. Optimal conditions for PCR amplification of cDNA were established using routine methods. mRNA levels of HMGB1, RAGE, IL-1β, TLR2, TLR4, CXCL2, TNF-α, NLR family pyrin domain containing 3 (NLRP3), NLR family CARD domain containing 4 (NLRC4), IL-12, TGF-β, IL-10, single Ig IL-1-related receptor (SIGIRR) and interleukin 1 receptor-like 1 (ST2) were tested by real-time RT-PCR (CFX Connect™ Real-Time PCR Detection System; Bio-Rad, Richmond, Calif.). The fold differences in gene expression were calculated after normalization to β-actin and expressed as the relative mRNA concentration+SEM.

[2] = system: P. aeruginosa ATCC strain 19660 infected cornea; experiment: Ocular response to bacterial infection (clinical score, slit lamp), strain 19660 keratitis; conditions: pretreatment subconj. + IP, vs PBS
Text: P. aeruginosa strains, KEI 1025, a non-cytotoxic clinical isolate strain expressing exoT and exoS, and not expressing exoU, described in Estrellas P S, Jr., et al., Curr Eye Res. 2000; 20:157-165 (obtained from Kresge Eye Institute, Detroit, Mich.), and a cytotoxic strain, 19660, expressing exoU, described in Finck-Barbancon V, et al., Mol Microbiol. 1997; 25:547-557; and Fleiszig S M, et al., Infect Immun. 1997; 65:579-586 (obtained from American Type Culture Collection, ATCC, Manassas, Va.), were grown in peptone tryptic soy broth (PTSB) medium in a rotary shaker water bath at 37° C. and 150 rpm for 18 h to an optical density (measured at 540 nm) between 1.3-1.8. Bacterial cultures were pelleted by centrifugation at 5,500 g for 10 min. Pellets were washed once with sterile saline, re-centrifuged, re-suspended and diluted in sterile saline. Anesthetized (using anhydrous ethyl ether) mice were placed beneath a stereoscopic microscope at 40× magnification. The left cornea was scarified with three 1-mm incisions using a sterile 25^5/8 gauge needle. The wounded corneal surface was topically treated with 5 μl containing 1×10^7 CFU/μl (KEI 1025) or 1×10^6 CFU/μl (ATCC strain 19660) of the P. aeruginosa suspension.
An established corneal disease grading scale, described in detail in Hazlett L D, et al., Invest Ophthalmol Vis Sci. 1987; 28:1978-1985, was used to assign a clinical score value to each infected eye at 1, 3 and 5 days post infection (p.i.). Clinical scores were designated as: 0=clear or slight opacity, partially or fully covering the pupil; +1=slight opacity, fully covering the anterior segment; +2=dense opacity, partially or fully covering the pupil; +3=dense opacity, covering the entire anterior segment; and +4=corneal perforation or phthisis. Clinical scores were used to statistically compare disease severity and were accompanied by photographs using a slit lamp (5 days p.i.) to confirm and illustrate the response.
as §1, with “In an additional experiment, KEI 1025 infected B6 mice were treated with 5 μl of 2 μg/μl GLY subconjunctivally at 6 hours p.i. and injected intraperitoneally at 1 and 3 days p.i. with 100 μl of GLY (2 μg/μl).” left out

[3] = system: mRNA levels in P. aeruginosa ATCC strain 19660 infected cornea; experiment: Real time RT-PCR of cornea, strain 19660 infection; conditions: vs PBS
Procedure: as §1, §2

[4] = system: P. aeruginosa ATCC strain 19660; experiment: Quantification of viable bacteria (plate count), strain 19660 infection; conditions: vs PBS
Procedure: as §1
Mice were sacrificed at 3 and 5 days p.i. and KEI 1025 or ATCC strain 19660 infected corneas from GLY, CBX or PBS (or GLY+/−rHMGB1) treated B6 mice were harvested (n=5/group/time). Each cornea was homogenized in 1 ml of sterile saline (0.85% NaCl, pH 7.4) containing 0.25% BSA. A 100 μl of the corneal homogenate was serially diluted (1:10) in sterile saline containing 0.25% BSA. […] Plates were incubated overnight at 37° C. and viable bacteria manually counted. […]

[5] = KEI 1025, pretreatment subconj. + IP, infected cornea 5 days p.i., vs PBS

## CC1(C)[C@@H](O[C@H]2O[C@H](C(=O)O)[C@@H](O)[C@H](O)[C@H]2O[C@@H]2O[C@H](C(=O)O)[C@@H](O)[C@H](O)[C@H]2O)CC[C@]2(C)[C@H]3C(=O)C=C4[C@@H]5C[C@@](C)(C(=O)O)CC[C@]5(C)CC[C@@]4(C)[C@]3(C)CC[C@@H]12 [GLY, glycyrrhizin]
[1]; [5]
  CXCL2 mRNA levels: reduced
  HMGB1 mRNA levels: significantly reduced; also recorded: significantly decreased
  IL-1β mRNA levels: significantly reduced
  IL-10 mRNA levels: reduced
  IL-12 mRNA levels: only GLY reduced
  NLRC4 mRNA levels: only GLY reduced
  NLRP3 mRNA levels: reduced
  RAGE mRNA levels: reduced RAGE mRNA levels (FIG. 2B) when compared with PBS but not significantly
  ST2 mRNA levels: reduced
  TGF-β mRNA levels: reduced
  TLR2 mRNA levels: significantly reduced
  TLR4 mRNA: reduced
  TNF-α mRNA levels: reduced by both GLY and CBX, but only GLY (p<0.01) was significant
[1]; normal (uninfected) corneas, among PBS, CBX, GLY groups
  mRNA levels of the other molecules tested: no differences
[1]; normal (uninfected) corneas, vs PBS
  RAGE mRNA levels: significantly reduced
[2]; 1 day p.i.
  clinical scores: not at 1 day p.i.
[2]; 3 days p.i.
  clinical scores: reduced clinical scores that were significant
[2]; 5 days p.i.
  clinical scores: reduced clinical scores that were significant
  disease/opacity, slit lamp photographs: less disease, reduced opacity
[3]; strain 19660, 5 days p.i.
  mRNA levels of CXCL2: slightly, but not significantly decreased
[3]; strain 19660, infected cornea 5 days p.i.
  Relative mRNA levels for HMGB1: no different
[3]; strain 19660 experiment, normal cornea
  CXCL2 mRNA: No differences
[3]; strain 19660 experiment, uninfected, normal cornea
  Relative mRNA levels for HMGB1: no different
[4]; 3 days p.i.
  bacterial load (plate count): significantly reduced
[4]; 5 days p.i.
  bacterial load (plate count): significantly reduced
